“Also recorded” adds a separate entry of the source.
What was measured:
CSF1R = CSF1R (Homo sapiens, UniProt P07333); test: In vitro multi-kinase activity, IC50; assay type: biochemical
Description: (§1) The study evaluates the IC50 values (in nM) of Compound 1 in comparison to FDA approved CDK 4/6 inhibitors Comparator 1, Comparator 2 and Comparator 3, which represent treatment advances for HR+ HER^2-metastatic breast cancer. IC50 value is a quantitative measure indicating the concentration needed to inhibit the listed kinase by 50%.

CDK1/cyclin B = CDK1/cyclin B (Homo sapiens, UniProt P06493); test: In vitro multi-kinase activity, IC50; assay type: biochemical
Description: as §1

CDK16/cyclin Y = CDK16/cyclin Y (Homo sapiens, UniProt Q00536); test: In vitro multi-kinase activity, IC50; assay type: biochemical
Description: as §1

ARK 5/NUAK 1 = target: T1, ARK 5/NUAK 1 (Homo sapiens, UniProt O60285); test: In vitro multi-kinase activity, IC50; assay type: biochemical
T1 sequence (O60285 1-661): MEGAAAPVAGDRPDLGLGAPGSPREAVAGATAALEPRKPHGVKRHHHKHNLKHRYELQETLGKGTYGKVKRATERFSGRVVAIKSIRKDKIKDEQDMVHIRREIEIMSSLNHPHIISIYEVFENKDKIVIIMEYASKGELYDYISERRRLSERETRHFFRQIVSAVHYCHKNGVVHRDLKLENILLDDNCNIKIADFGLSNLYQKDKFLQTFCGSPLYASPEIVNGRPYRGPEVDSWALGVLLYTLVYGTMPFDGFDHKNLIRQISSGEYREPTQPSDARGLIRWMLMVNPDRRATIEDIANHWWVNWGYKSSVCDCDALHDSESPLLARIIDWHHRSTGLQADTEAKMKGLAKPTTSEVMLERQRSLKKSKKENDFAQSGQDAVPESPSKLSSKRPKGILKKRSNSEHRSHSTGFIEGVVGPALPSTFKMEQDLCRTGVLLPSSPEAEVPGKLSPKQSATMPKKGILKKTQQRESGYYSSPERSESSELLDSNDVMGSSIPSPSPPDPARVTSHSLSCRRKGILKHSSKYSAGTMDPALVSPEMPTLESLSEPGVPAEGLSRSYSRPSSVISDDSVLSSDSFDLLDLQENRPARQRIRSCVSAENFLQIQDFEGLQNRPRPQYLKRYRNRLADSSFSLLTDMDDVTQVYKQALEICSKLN
Description: as §1

KIT = KIT (Homo sapiens, UniProt P10721); test: In vitro multi-kinase activity, IC50; assay type: biochemical
Description: as §1

CDK7/cyclin H = CDK7/cyclin H (Homo sapiens, UniProt P50613); test: In vitro multi-kinase activity, IC50; assay type: biochemical
Description: as §1

CDK9/cyclinT1 = CDK9/cyclinT1 (Homo sapiens, UniProt P50750); test: In vitro multi-kinase activity, IC50; assay type: biochemical
Description: as §1

CDK4/cyclin D1 = CDK4/cyclin D1 (Homo sapiens, UniProt P11802); test: In vitro multi-kinase activity, IC50; assay type: biochemical
Description: as §1

CDK2/cyclin E = CDK2/cyclin E (Homo sapiens, UniProt P24941); test: In vitro multi-kinase activity, IC50; assay type: biochemical
Description: as §1

CDK6/cyclin D1 = CDK6/cyclin D1 (Homo sapiens, UniProt Q00534); test: In vitro multi-kinase activity, IC50; assay type: biochemical
Description: as §1

CDK17/cyclin Y = CDK17/cyclin Y (Homo sapiens, UniProt Q00537); test: In vitro multi-kinase activity, IC50; assay type: biochemical
Description: as §1

kinases = test: KinMap kinase inhibition profile (FIG. 1); settings: compared to a kinase inhibitor that is not compound 1
[1] = Neutropenia in preclinical models (FIG. 2); assay type: in vivo; settings: in comparison to Comparator 1
[2] = Phase 1 dose-escalation study in patients with advanced cancer; assay type: in vivo, human
Procedure: The study is a phase 1 dose-escalation study of 8-cyclopentyl-2-((4-(4-methylpiperazin-1-yl)phenyl)amino)-7-oxo-7,8-dihydropyrido[2,3-d]pyrimidine-6-carbonitrile (Compound 1) in patients with advanced cancer. Patients are dosed daily in 28-day cycles with Compound 1 starting at 40 mg daily with dosages escalating 40 mg/day increments for each new cohort or only on days 1-21 of 28-day cycles. […] Adverse events reported are Grade 1 or 2 in severity and are predominantly gastrointestinal (GI) disorders.

Sequence of CDK7/cyclin H (P50613 whole entry): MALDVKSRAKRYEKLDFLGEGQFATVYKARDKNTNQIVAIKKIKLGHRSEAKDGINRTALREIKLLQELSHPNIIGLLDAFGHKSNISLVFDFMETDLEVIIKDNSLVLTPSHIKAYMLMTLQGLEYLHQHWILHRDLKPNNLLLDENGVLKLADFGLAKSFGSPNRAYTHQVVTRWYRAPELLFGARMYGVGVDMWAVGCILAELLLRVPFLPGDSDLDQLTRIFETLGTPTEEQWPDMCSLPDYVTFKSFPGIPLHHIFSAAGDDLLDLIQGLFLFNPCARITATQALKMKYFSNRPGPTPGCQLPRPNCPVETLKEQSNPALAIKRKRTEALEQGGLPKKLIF
Sequence of CDK7/cyclin H (P51946 whole entry partner): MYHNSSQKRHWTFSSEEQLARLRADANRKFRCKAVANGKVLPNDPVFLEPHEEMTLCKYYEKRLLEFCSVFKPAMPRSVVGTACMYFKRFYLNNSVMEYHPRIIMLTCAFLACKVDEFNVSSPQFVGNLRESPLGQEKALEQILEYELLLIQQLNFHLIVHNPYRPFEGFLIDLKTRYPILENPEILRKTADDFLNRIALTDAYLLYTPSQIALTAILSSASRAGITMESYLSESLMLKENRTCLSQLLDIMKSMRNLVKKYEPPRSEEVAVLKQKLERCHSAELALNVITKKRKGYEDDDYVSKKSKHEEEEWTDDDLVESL
Sequence of CDK6/cyclin D1 (Q00534 whole entry): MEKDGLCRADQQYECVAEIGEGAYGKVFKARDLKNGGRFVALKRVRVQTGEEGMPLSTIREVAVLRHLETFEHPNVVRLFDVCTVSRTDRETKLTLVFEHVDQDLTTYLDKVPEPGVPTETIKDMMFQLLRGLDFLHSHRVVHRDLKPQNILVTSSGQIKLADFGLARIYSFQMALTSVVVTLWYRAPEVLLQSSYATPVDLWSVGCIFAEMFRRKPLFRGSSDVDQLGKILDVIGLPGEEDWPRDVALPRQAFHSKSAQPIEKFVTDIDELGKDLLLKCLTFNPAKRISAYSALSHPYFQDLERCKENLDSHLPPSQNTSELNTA
Sequence of CDK6/cyclin D1 (P24385 whole entry partner): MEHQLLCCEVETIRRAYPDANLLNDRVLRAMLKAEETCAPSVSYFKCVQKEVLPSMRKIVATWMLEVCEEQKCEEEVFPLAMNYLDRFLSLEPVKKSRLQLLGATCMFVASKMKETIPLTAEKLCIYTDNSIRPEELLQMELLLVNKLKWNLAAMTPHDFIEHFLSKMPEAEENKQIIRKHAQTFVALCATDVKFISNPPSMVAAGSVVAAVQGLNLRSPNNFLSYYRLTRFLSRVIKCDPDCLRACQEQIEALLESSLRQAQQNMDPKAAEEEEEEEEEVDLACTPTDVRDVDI
Sequence of CDK1/cyclin B (P06493 whole entry): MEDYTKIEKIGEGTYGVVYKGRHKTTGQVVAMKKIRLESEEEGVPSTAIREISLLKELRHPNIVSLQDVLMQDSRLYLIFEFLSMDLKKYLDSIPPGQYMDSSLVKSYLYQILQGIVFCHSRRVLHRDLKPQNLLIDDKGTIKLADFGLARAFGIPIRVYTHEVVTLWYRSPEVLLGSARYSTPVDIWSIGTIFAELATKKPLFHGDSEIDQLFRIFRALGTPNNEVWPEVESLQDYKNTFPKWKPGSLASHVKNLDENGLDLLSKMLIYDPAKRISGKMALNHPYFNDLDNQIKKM
Sequence of CDK1/cyclin B (P14635 whole entry partner): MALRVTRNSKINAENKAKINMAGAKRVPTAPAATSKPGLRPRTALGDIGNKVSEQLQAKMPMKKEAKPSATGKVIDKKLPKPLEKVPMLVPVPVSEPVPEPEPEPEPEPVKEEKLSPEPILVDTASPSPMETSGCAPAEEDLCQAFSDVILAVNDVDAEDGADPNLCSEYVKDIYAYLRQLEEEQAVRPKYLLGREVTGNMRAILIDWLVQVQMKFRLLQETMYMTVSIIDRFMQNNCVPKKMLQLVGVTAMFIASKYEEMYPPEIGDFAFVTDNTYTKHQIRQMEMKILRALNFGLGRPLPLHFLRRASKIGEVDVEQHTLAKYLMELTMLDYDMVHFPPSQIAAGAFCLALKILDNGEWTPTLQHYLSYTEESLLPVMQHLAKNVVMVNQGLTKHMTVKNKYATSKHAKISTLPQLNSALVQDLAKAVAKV
Sequence of KIT (P10721 26-976): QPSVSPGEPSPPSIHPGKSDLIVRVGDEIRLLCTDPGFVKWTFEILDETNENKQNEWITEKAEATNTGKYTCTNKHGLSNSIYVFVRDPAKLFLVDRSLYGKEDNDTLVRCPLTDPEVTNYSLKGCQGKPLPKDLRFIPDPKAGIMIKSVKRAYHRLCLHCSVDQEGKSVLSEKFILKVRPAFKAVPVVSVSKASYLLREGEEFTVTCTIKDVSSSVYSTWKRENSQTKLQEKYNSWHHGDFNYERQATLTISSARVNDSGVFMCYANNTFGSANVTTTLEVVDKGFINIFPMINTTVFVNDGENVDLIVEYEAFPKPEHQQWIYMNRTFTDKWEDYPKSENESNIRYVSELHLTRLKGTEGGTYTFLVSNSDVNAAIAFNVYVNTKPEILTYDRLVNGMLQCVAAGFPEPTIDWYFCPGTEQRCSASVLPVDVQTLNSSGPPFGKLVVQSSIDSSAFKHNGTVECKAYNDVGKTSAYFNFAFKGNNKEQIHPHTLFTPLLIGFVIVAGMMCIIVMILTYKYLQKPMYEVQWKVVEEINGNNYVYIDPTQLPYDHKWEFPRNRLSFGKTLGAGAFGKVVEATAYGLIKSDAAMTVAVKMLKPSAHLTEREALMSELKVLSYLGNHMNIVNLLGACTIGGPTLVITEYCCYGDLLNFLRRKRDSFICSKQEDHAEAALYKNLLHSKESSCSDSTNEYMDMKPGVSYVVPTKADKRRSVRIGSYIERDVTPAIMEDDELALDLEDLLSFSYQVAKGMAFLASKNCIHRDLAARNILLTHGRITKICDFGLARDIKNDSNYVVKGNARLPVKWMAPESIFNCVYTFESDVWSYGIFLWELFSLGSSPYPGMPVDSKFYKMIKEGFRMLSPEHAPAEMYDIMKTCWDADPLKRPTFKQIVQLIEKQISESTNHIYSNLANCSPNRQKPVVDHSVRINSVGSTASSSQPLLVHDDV
Sequence of CDK4/cyclin D1 (P11802 whole entry): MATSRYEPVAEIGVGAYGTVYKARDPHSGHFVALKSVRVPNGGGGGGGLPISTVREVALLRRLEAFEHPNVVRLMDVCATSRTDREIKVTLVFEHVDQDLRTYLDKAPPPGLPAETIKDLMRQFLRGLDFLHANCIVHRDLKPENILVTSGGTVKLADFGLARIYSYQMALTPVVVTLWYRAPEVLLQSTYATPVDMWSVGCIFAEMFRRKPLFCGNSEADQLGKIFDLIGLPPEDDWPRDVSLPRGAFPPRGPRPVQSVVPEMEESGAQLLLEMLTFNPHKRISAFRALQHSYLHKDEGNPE
Sequence of CDK4/cyclin D1 (P24385 whole entry partner): as the sequence (P24385 whole entry partner) above
Sequence of CDK9/cyclinT1 (P50750 whole entry): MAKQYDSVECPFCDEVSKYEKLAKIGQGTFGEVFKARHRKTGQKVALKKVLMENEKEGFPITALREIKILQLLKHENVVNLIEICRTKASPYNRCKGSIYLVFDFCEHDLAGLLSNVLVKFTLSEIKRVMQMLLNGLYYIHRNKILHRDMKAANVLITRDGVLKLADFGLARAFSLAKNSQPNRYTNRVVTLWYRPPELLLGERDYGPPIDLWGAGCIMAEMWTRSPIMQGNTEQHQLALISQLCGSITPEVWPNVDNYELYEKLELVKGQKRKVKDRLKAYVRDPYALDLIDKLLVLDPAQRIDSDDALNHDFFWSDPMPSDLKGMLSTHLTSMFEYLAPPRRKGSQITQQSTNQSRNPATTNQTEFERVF
Sequence of CDK9/cyclinT1 (O60563 whole entry partner): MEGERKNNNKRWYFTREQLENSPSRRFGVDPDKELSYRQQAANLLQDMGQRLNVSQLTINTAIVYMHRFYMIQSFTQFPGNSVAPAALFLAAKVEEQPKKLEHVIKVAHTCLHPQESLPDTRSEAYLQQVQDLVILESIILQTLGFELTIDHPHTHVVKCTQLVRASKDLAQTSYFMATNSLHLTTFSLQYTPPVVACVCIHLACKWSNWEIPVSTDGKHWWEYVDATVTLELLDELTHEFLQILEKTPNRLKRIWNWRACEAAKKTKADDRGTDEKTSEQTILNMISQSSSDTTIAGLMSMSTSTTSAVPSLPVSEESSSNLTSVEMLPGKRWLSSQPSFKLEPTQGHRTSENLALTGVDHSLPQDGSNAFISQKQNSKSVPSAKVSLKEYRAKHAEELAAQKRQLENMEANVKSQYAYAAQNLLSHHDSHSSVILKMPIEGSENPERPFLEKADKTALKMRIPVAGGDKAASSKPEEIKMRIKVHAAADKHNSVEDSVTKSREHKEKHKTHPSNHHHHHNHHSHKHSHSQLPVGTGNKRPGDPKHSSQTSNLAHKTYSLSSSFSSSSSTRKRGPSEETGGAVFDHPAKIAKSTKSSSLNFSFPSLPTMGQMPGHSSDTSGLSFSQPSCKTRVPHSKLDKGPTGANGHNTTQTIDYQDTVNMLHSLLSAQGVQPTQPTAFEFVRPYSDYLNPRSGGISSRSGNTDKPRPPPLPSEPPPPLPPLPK

CN1CCN(c2ccc(Nc3ncc4cc(C#N)c(=O)n(C5CCCC5)c4n3)cc2)CC1 [Compound 1, 8-cyclopentyl-2-((4-(4-methylpiperazin-1-yl)phenyl)amino)-7-oxo-7,8-dihydropyrido[2,3-d]pyrimidine-6-carbonitrile]
IC50 (CSF1R): 0.7 nM | IC50 (CDK1/cyclin B): 515 nM | IC50 (CDK16/cyclin Y): 25 nM | IC50 (ARK 5/NUAK 1): 5 nM | IC50 (KIT): 8.5 nM | IC50 (CDK7/cyclin H): 3770 nM | IC50 (CDK9/cyclinT1): 48 nM | IC50 (CDK4/cyclin D1): 2 nM | IC50 (CDK2/cyclin E): 69 nM | IC50 (CDK6/cyclin D1): 0.6 nM | IC50 (CDK17/cyclin Y): 14 nM | inhibition profile by KinMap (kinases): wider inhibition profile | neutropenia [1]: reduced Neutropenia; also recorded: less neutropenia | dose-limiting toxicities ([2]; 200 mg/day cohort, oral, daily in 28-day cycles): No dose-limiting toxicities | severity of adverse events reported ([2]; predominantly gastrointestinal (GI) disorders): Grade 1 or 2
